Assay results taken from EP0348513A1, “STYRENE DERIVATIVE, POLYSTYRENE DERIVATIVE COMPRISING THE SAME, PROCESS FOR PREPARING SAID POLYSTYRENE DERIVATIVE, AND ULTRAVIOLET ABSORBER COMPRISING SAID STYRENE DERIVATIVE OR POLYSTYRENE DERIVATIVE” (Earth Chemical Co., Ltd., priority 1987, dated 1989).
Values joined by “and” are separate entries in the source; they are usually repeats but may differ in a detail not shown here. Identical values can stand only once.

Legend:
[1] = Ultraviolet absorption spectrum (spectrophotometer, quartz cell, optical path 10 mm); format: physicochemical
Method: The measurement was carried out by using a spectrophotometer (UV-200S, made by SHIMADZU CORPORATION) as an ethanol solution of the sample having a suitable concentration with a quartz cell having an optical path of 10 mm. Also, the wavelength at the maximum absorption and the molar extinction coefficient were found from the results of the measurement as the ultraviolet absorptive properties. The results are shown below. • Wavelength at the maximum absorption: 332 nm Molar extinction coefficient: 44,000
The measurement was carried out by using a spectrophotometer (UV-200S, made by SHIMADZU CORPORATION), as a dimethylformamide solution of the sample having a suitable concentration and with a quartz cell having an optical path of 10 mm.
The measurement was carried out by using a spectrophotometer (UV-200S, made by SHIMADZU CORPORATION), as a dimethylformamide solution of the sample having a suitable concentration, with a quartz cell having an optical path of 10 mm.

[2] = Transmittance of ultraviolet rays through a coated polyethylene sheet; format: physicochemical; conditions: wavelength of 330 nm
Method: There was dissolved 2.8 g of p-vinylbenzaldehyde 4-carboxymethyl-2-methylthiosemicarbazone in 1.5 g of triethanolamine and 23.7 g of water. The solution was applied onto a polyethylene sheet having a thickness of 0.5 mm (which was prepared in the same manner as the preparation process for the'control pieces in Example 11) in an amount of 2.0 mg/cm^2, and dried at room temperature to give a ultraviolet absorbent sheet.
The obtained ultraviolet absorbent sheet and untreated polyethylene sheet were cut into pieces having a size of 1 cm X 4 cm, respectively. The untreated polyethylene sheet was used as control piece, and transmittance of ultraviolet rays at a wavelength of 330 nm was measured by using a spectrophotometer. As the result, the transmittance of ultraviolet rays of the ultraviolet absorbent sheet was not more than 0.1 %. Accordingly, it was confirmed that not less than 99.9 % of ultraviolet rays were absorbed under the above condition.

skin of a quinea pig = experiment: Percutaneous absorption, Franz diffusion cell; format: in vitro ADME; conditions: 1 % aqueous solution, 33°C, 20 hours
Method: The skin of a quinea pig was peeled, washed with physiological saline and then set in a percutaneous absorption apparatus which was made in accordance with the description in Franz, T. J, J. Invest, Dermatol, 64, 190, 1975, by using a diffusion cell. The sample room was filled with 0.5 mi of a 1 % aqueous solution of the polystyrene derivative, and the acceptor was filled with physiological saline. After maintaining at 33°C for 20 hours while stirring with a magnetic stirrer, the physiological saline in the acceptor was taken out, and the ultraviolet absorbency was measured. In the same manner as above, ultraviolet absorbency was measured, using water alone as a negative control substance and a 1 % aqueous solution of p-aminobenzoic acid as a positive control substance. […] To the contrary, the spectrum of the positive control substance was shown the corresponding to an amount of 87.0 ppm of the compound.
The skin of a quinea pig was peeled, washed with physiological saline and then set in a percutaneous absorption apparatus which was made in accordance with the description in Franz, T. J, J. Invest, Dermatol, 64, 190, 1975, by using a diffusion cell. […] After maintaining at 33°C for 20 hours while stirring with a magnetic stirrer, the physiological saline in the acceptor was taken out, and the ultraviolet absorbency was measured. […]

guinea pigs = experiment: Sunscreen effect against ultraviolet irradiation of the skin; format: in vivo; conditions: sunscreen ointment or lotion containing the derivative, about 2 mg per 1 cm^2, ultraviolet rays 10 minutes, judged after 24 hours with the naked eyes; control area turned red
Method: (§1) Hair of. the notal of three guinea pigs was cut, and the drug (ointment) was applied in an amount of about 2 mg per 1 cm^2. Then, ultraviolet rays were irradiated for 10 minutes by a fluorescent light (FL-20SE, made by TOSHIBA CORPORATION) from a height of 10 cm from the notal.. On the other hand, as a control area, a base prepared without mixing the sunscreening agent was applied, and treatments were carried out in the same manner as.above. The judgement was conducted after 24 hours with the naked eyes.
as §1, with “of” for “of.”, “cm^2..” for “cm^2.”, “notal.” for “notal..”, “as above.” for “as.above.”

[3] = ethanol solution, at the maximum absorption
[4] = N,N-dimethylformamide solution, at the maximum absorption
[5] = commercially available sunscreening agent, solvent not stated
[6] = commercially available sunscreening agent, at the first (shorter) maximum
[7] = commercially available sunscreening agent, at the second (longer) maximum
[8] = commercially available sunscreening agent, first (shorter) maximum
[9] = commercially available sunscreening agent, second (longer) maximum

| SMILES | Wavelength at the maximum absorption ([1]; ethanol solution) [nm] | Molar extinction coefficient [1, 3] | also measured |
| --- | --- | --- | --- |
| Nc1ccc(C(=O)O)cc1 [p-aminobenzoic acid] | – | – | amount of the compound in the acceptor corresponding to the spectrum (skin of a quinea pig): 87.0 ppm and 93.0 ppm |
| C=Cc1ccc(C=NN(C)C(=S)Nc2ccccc2)cc1 [Example 12, p-vinylbenzaldehyde 2-methyl-4-phenylthiosemicarbazone] | – | – | Wavelength at the maximum absorption ([1]; N,N-dimethylformamide solution): 338 nm; Molar extinction coefficient [1, 4]: 40,000 |
| C=Cc1ccc(C=NN(C)C(=S)N(C)C)cc1 [Example 8, p-vinylbenzaldehyde 2,4,4-trimethylthiosemicarbazone] | 331 | 29,000 | – |
| C=Cc1ccc(C=NN(C)C(=S)NCC(=O)OC)cc1 [Example 1, p-vinylbenzaldehyde 4-methoxycarbonylmethyl-2-methylthiosemicarbazone] | 332 | 44,000 | – |
| CC1CC(OC(=O)c2ccccc2O)CC(C)(C)C1 (stereo not drawn) [homomenthyl salicylate, reference compound] | – | – | Molar extinction coefficient [1, 5]: 4,400; Wavelength at the maximum absorption [1, 5]: 308 nm |
| C=Cc1ccc(C=NN(C)C(=O)NCC(=O)OCC)cc1 [Example 3, p-vinylbenzaldehyde 4-ethoxy carbonylmethyl-2-methylsemicarbazone] | 311 | 33,000 | sunscreen effect (color of the applied area compared with an area not irradiated) (guinea pigs): the color in the area on which the sunscreen lotion was applied was not changed |
| COc1ccc(C(=O)c2ccccc2)c(O)c1 [2-hydroxy-4-methoxybenzophenone, reference compound] | – | – | molar extinction coefficients [1, 6]: 13,000; molar extinction coefficients [1, 7]: 8,200; wavelengths at the maximum absorption [1, 8]: 287 nm; wavelengths at the maximum absorption [1, 9]: 326 nm |
| Cc1ccc(O)c(-n2nc3ccccc3n2)c1 [2-(2'-hydroxy-5'-methylphenylbenzotriazole), reference compound] | – | – | molar extinction coefficients [1, 6]: 12,000; molar extinction coefficients [1, 7]: 13,000; wavelengths at the maximum absorption [1, 8]: 297 nm; wavelengths at the maximum absorption [1, 9]: 337 nm |
| C=Cc1ccc(C=NN(CC(=O)OCC)C(=S)N(C)C)cc1 [Example 6, p-vinylbenzaldehyde 2-ethoxycarbonylmethyl-4,4-dimethylthiosemicarbazone] | 381 | 34,000 | – |
| C=Cc1ccc(C=NN(C(=S)NC)c2ccccc2)cc1 [Example 11, p-vinylbenzaldehyde 4-methyl-2-phenylthiosemicarbazone] | – | – | Wavelength at the maximum absorption ([1]; N,N-dimethylformamide solution): 335 nm; Molar extinction coefficient [1, 4]: 38,000 |

Further lines, with some results ahead:

| Wavelength at the maximum absorption ([1]; ethanol solution) [nm] | Molar extinction coefficient [1, 3] | SMILES | also measured |
| --- | --- | --- | --- |
| 332 | 44,000 | C=Cc1ccc(C=NN(C)C(=S)NCC(=O)O)cc1 [Example 2, p-vinylbenzaldehyde 4-carboxymethyl-2-methylthiosemicarbazone] | ultraviolet rays absorbed ([2]; same coated sheet): not less than 99.9%; transmittance of ultraviolet rays ([2]; triethanolamine/water solution applied at 2.0 mg/cm^2 on 0.5 mm polyethylene sheet): not more than 0.1% |
| 322 | 40,000 | C=Cc1ccc(C=NN(CCO)C(=S)NC)cc1 [Example 9, p-vinylbenzaldehyde 2-(β-hydroxyethyl)-4-methylthiosemicarbazone] | – |
| 315 | 34,000 | C=Cc1ccc(C=NN(C)C(=S)NC)cc1 [Example 7, vinylbenzaldehyde 2,4-dimethylthiosemicarbazone] | – |
| 332 | 38,000 | C=Cc1ccc(C=NN(CCCC(=O)O)C(=S)NC)cc1 [Example 5, p-vinylbenzaldehyde 2-(y-carboxypropyl)-4-methylthiosemicarbazone] | – |
| 315 | 34,000 | C=Cc1ccc(C=NN(CC(=O)O)C(=S)NC)cc1 [Example 4, vinylbenzaldehyde 2-carboxymethyl-4-methylthiosemicarbazone] | – |
